Consider 9 compounds from patent publication US20260022142A1, “MACROCYCLIC IMMUNOMODULATORS” (Bristol-Myers Squibb Company, priority 2022, published 2026).

What is called IC50 is the concentration that gives 50% inhibition.

Structures are written as SMILES. Bridge positions count the residues as written; N and C are the ends. Square brackets hold non-standard residues; d marks the D form. Peptide text beside a SMILES is read from it. * marks the point of attachment. ξ: configuration not given here. Phe(4-COOH) = N[C@@H](Cc1ccc(C(=O)O)cc1)C(=O)O; Bip = N[C@@H](Cc1ccc(-c2ccccc2)cc1)C(=O)O; Ala(2-furyl) = N[C@@H](Cc1ccco1)C(=O)O; Phe(3-Me) = Cc1cccc(C[C@H](N)C(=O)O)c1; Val(3-OH) = CC(C)(O)[C@H](N)C(=O)O; hArg = N=C(N)NCCCC[C@H](N)C(=O)O; hPhe = N[C@@H](CCc1ccccc1)C(=O)O; 4Pal = N[C@@H](Cc1ccncc1)C(=O)O; Cha = N[C@@H](CC1CCCCC1)C(=O)O; Thr(3ξ) = CC(O)[C@H](N)C(=O)O; 12Ado = NCCCCCCCCCCCC(=O)O; Carboxymethyl = O=C(O)C*; Orn = NCCC[C@H](N)C(=O)O; Aun = NCCCCCCCCCCC(=O)O; Dab = NCC[C@H](N)C(=O)O; Dap = NC[C@H](N)C(=O)O; AEEA = NCCOCCOCC(=O)O; ξDab = NCCC(N)C(=O)O; Propargyl = C#CC*

The target of this assay is T1, PD-1/PD-L1 interaction (PE-labeled human PD-L1-Ig binding to Jurkat cell line over-expressing human PD-1) (Homo sapiens, UniProt Q15116).
T1 construct: expressed in transfected cells; host or cells: Jurkat
T1 sequence (Q15116 25-288): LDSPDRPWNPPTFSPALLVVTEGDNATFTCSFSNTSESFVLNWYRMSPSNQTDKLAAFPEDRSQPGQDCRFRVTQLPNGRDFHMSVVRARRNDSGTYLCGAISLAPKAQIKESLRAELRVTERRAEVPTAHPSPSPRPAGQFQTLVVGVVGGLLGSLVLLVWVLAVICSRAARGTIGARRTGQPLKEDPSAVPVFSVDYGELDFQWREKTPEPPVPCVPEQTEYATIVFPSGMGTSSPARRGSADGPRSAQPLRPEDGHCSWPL
Nature of the assay: Jurkat-PD-1 Cell Binding High-Content Screening Assay (CBA). Format: cell-based. The conditions noted are these: Jurkat cell line over-expressing human PD-1; PE-labeled PD-L1-Ig 20 nM final; read-out: Jurkat hPD1-PDL1 IC50. An outline of the steps:
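First, compound is added to PD-1-expressing Jurkat cells in serum-containing DMEM and left 2 h at 37° C. Next, PE-conjugated PD-L1-Ig is introduced at 20 nM final concentration for 1 hour. Finally, cells are fixed in 4% paraformaldehyde with Hoechst 33342, washed and imaged.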
Consider `Cc1cccc(C[C@@H]2NC(=O)[C@H](CC(=O)O)NC(=O)[C@H](Cc3ccc(OCC(=O)O)cc3)NC(=O)[C@H](CCCCNC(=N)N)NC(=O)CSC[C@@H](C(=O)NCC(=O)NCCOCCOCC(=O)N[C@@H](CCC(=O)O)C(=O)NCCCCCCCCCCCC(=O)O)NC(=O)[C@H](CO)NC(=O)[C@H](C(C)C)NC(=O)[C@H](CC3CCCCC3)NC(=O)[C@H](CCN)NC(=O)[C@@H](CC(C)C)NC(=O)[C@H](CCCN)NC(=O)[C@H](C(C)C)NC(=O)[C@H](Cc3ccc(-c4ccccc4)cc3)NC(=O)[C@H](C(C)C)NC2=O)c1` [Compound 3184] ({CH2CO}-[hArg]Y(Carboxymethyl)D[Phe(3-Me)]V[Bip]V[Orn][dL][Dab][Cha]VSCG[AEEA]E[12Ado]-OH; thioether N-14), for which the IC50 is 10.1 nM. The value for `CC(C)C[C@H]1NC(=O)[C@H](CCCN)NC(=O)[C@H](C(C)C)NC(=O)[C@H](Cc2ccc(-c3ccccc3)cc2)NC(=O)[C@H](C(C)C)NC(=O)[C@H](Cc2c[nH]c3ccccc23)NC(=O)[C@H](CC(=O)O)NC(=O)[C@H](Cc2ccc(C(=O)O)cc2)NC(=O)[C@H](C(C)O)NC(=O)CSC[C@@H](C(=O)N[C@@H](C)C(=O)NCCOCCOCC(=O)N[C@@H](CCN)C(=O)NCCCCCCCCCCC(=O)O)NC(=O)[C@H](C(C)O)NC(=O)[C@H](C(C)C)NC(=O)[C@H](CC2CCCCC2)NC(=O)[C@H](CCN)NC1=O` (stereo partly drawn) [Compound 3022] ({CH2CO}-[Thr(3ξ)][Phe(4-COOH)]DWV[Bip]V[Orn][dL][Dab][Cha]V[Thr(3ξ)]CA[AEEA][Dab][Aun]-OH; thioether N-14) was 7.3 nM; that for `Cc1cccc(C[C@@H]2NC(=O)[C@H](CC(=O)O)NC(=O)[C@H](Cc3ccc(OCC(=O)O)cc3)NC(=O)[C@H](CCc3ccccc3)NC(=O)CSC[C@@H](C(=O)N[C@@H](CCN)C(=O)NCCCCCCCCCCC(=O)O)NC(=O)[C@H](CO)NC(=O)[C@H](C(C)(C)O)NC(=O)[C@H](CC3CCCCC3)NC(=O)[C@H](CCN)NC(=O)[C@@H](CC(C)C)NC(=O)[C@H](CCCN)NC(=O)[C@H](Cc3ccc(OCC(=O)O)cc3)NC(=O)[C@H](Cc3ccc(-c4ccccc4)cc3)NC(=O)[C@H](Cc3ccc(OCC(=O)O)cc3)NC2=O)c1` [Compound 2231] ({CH2CO}-[hPhe]Y(Carboxymethyl)D[Phe(3-Me)]Y(Carboxymethyl)[Bip]Y(Carboxymethyl)[Orn][dL][Dab][Cha][Val(3-OH)]SC[Dab][Aun]-OH; thioether N-14) was 15.2 nM; that for `Cc1cccc(C[C@@H]2NC(=O)[C@H](CC(=O)O)NC(=O)[C@H](Cc3ccc(OCC(=O)O)cc3)NC(=O)[C@H](CCCNC(=N)N)NC(=O)CSC[C@@H](C(=O)NCCOCCOCC(=O)NCCCCCCCCCCC(=O)O)NC(=O)[C@H](CCC(N)=O)NC(=O)[C@H](C(C)C)NC(=O)[C@H](CC3CCCCC3)NC(=O)[C@H](CCN)NC(=O)[C@@H](CC(C)C)NC(=O)[C@H](CCN)NC(=O)[C@H](Cc3ccc(O)cc3)NC(=O)[C@H](Cc3ccc(-c4ccccc4)cc3)NC(=O)[C@H](C(C)C)NC2=O)c1` [Compound 3398] ({CH2CO}-RY(Carboxymethyl)D[Phe(3-Me)]V[Bip]Y[Dab][dL][Dab][Cha]VQC[AEEA][Aun]-OH; thioether N-14) was 5.8 nM. With `Cc1cccc(C[C@@H]2NC(=O)[C@H](CC(=O)O)NC(=O)[C@H](Cc3ccc(OCC(=O)O)cc3)NC(=O)[C@H](CC3CCCCC3)NC(=O)CSC[C@@H](C(=O)N[C@@H](CCN)C(=O)NCCOCCOCC(=O)NCCCCCCCCCCC(=O)O)NC(=O)[C@H](CO)NC(=O)[C@H](C(C)(C)O)NC(=O)[C@H](CC3CCCCC3)NC(=O)[C@H](CCN)NC(=O)[C@@H](CC(C)C)NC(=O)[C@H](CCCN)NC(=O)[C@H](Cc3ccc(OCC(=O)O)cc3)NC(=O)[C@H](Cc3ccc(-c4ccccc4)cc3)NC(=O)[C@H](Cc3ccc(OCC(=O)O)cc3)NC2=O)c1` [Compound 1263] ({CH2CO}-[Cha]Y(Carboxymethyl)D[Phe(3-Me)]Y(Carboxymethyl)[Bip]Y(Carboxymethyl)[Orn][dL][Dab][Cha][Val(3-OH)]SC[Dab][AEEA][Aun]-OH; thioether N-14), the IC50 amounted to 5.6 nM. Turning to `CC(C)C[C@H]1NC(=O)[C@H](CCCN)NC(=O)[C@H](Cc2ccc(O)cc2)NC(=O)[C@H](Cc2ccc(-c3ccccc3)cc2)NC(=O)[C@H](Cc2ccc(O)cc2)NC(=O)[C@H](Cc2c[nH]c3ccccc23)NC(=O)[C@H](CC(=O)O)NC(=O)[C@H](Cc2ccc(OCC(=O)O)cc2)NC(=O)[C@H](Cc2ccc(OCC(=O)O)cc2)NC(=O)CSC[C@@H](C(=O)NC(CCN)C(=O)NCCCCCCCCCCC(=O)O)NC(=O)[C@H](CCCNC(=N)N)NC(=O)[C@H](Cc2ccc(O)cc2)NC(=O)[C@H](CC2CCCCC2)NC(=O)[C@H](CCN)NC1=O` (stereo partly drawn) [Compound 2508] ({CH2CO}-Y(Carboxymethyl)Y(Carboxymethyl)DWY[Bip]Y[Orn][dL][Dab][Cha]YRC[ξDab][Aun]-OH; thioether N-14), the IC50 is 132 nM.

Consider `CC(C)C[C@H]1NC(=O)[C@H](CCCN)NC(=O)[C@H](Cc2ccc(O)cc2)NC(=O)[C@H](Cc2ccc(-c3ccccc3)cc2)NC(=O)[C@H](C(C)C)NC(=O)[C@H](Cc2c[nH]c3ccccc23)NC(=O)[C@H](CC(=O)O)NC(=O)[C@H](Cc2ccc(OCC(=O)O)cc2)NC(=O)[C@H](CCCNC(=N)N)NC(=O)CSC[C@@H](C(=O)N[C@@H](CCN)C(=O)NCCCCCCCCCCC(=O)O)NC(=O)[C@H](Cc2ccco2)NC(=O)[C@H](C(C)C)NC(=O)[C@H](CC2CCCCC2)NC(=O)[C@H](CCN)NC1=O` [Compound 3415] ({CH2CO}-RY(Carboxymethyl)DWV[Bip]Y[Orn][dL][Dab][Cha]V[Ala(2-furyl)]C[Dab][Aun]-OH; thioether N-14), for which the half-inhibitory concentration (IC50) came out at 73.6 nM. Take `CC(C)C[C@H]1NC(=O)[C@H](CCCN)NC(=O)[C@H](Cc2ccc(O)cc2)NC(=O)[C@H](Cc2ccc(-c3ccccc3)cc2)NC(=O)[C@H](Cc2ccc(OCC(=O)O)cc2)NC(=O)[C@H](Cc2c[nH]c3ccccc23)NC(=O)[C@H](CC(=O)O)NC(=O)[C@H](Cc2ccc(OCC(=O)O)cc2)NC(=O)[C@H](CN)NC(=O)CSC[C@@H](C(=O)N[C@@H](CCN)C(=O)NCCOCCOCC(=O)NCCCCCCCCCCC(=O)O)NC(=O)[C@H](CCCN)NC(=O)[C@H](C(C)C)NC(=O)[C@H](CC2CCCCC2)NC(=O)[C@H](CCN)NC1=O` [Compound 1306] ({CH2CO}-[Dap]Y(Carboxymethyl)DWY(Carboxymethyl)[Bip]Y[Orn][dL][Dab][Cha]V[Orn]C[Dab][AEEA][Aun]-OH; thioether N-14): the IC50 came out at 48.9 nM.

Take `C#CCOC[C@@H]1NC(=O)[C@H](C(C)C)NC(=O)[C@H](CC2CCCCC2)NC(=O)[C@H](CCN)NC(=O)[C@@H](CC(C)C)NC(=O)[C@H](CCCN)NC(=O)[C@H](Cc2ccc(OCC(=O)O)cc2)NC(=O)[C@H](Cc2ccc(-c3ccccc3)cc2)NC(=O)[C@H](Cc2ccc(OCC(=O)O)cc2)NC(=O)[C@H](Cc2cccc(C)c2)NC(=O)[C@H](CC(=O)O)NC(=O)[C@H](Cc2ccncc2)NC(=O)[C@H](Cc2ccc(OCC(=O)O)cc2)NC(=O)CSC[C@@H](C(=O)N[C@@H](CCN)C(=O)NCCCCCCCCCCC(=O)O)NC1=O` [Compound 1250] ({CH2CO}-Y(Carboxymethyl)[4Pal]D[Phe(3-Me)]Y(Carboxymethyl)[Bip]Y(Carboxymethyl)[Orn][dL][Dab][Cha]VS(Propargyl)C[Dab][Aun]-OH; thioether N-14): the IC50 is 40.4 nM.
